In BindingDB's records for patent US11834430 (Agency For Science, Technology and Research, 2023):

Target: Protein-S-isoprenylcysteine O-methyltransferase (Homo sapiens, UniProt O60725)
Assay: ICMT Biochemical Assay
Description: An ICMT enzymatic assay was developed using Promega's Methyltransferase-GloTMreagents. In the assay, ICMT catalyzes the methylation of the N-Acetyl-S-farnesyl-L-cysteine by transferring a methyl group from SAM to the farnesylated cysteine and further converts the SAM to SAH. The methyltransferase activity is measured based on the amount of SAH produced from the reaction through the use of coupling enzymes that convert the SAH to ATP. […] A final concentration of 2.0 μM and 20 μM of SAM and peptide were added and further incubated for 90 minutes at room temperature before adding the MTase Glo and detection reagent. Reaction signals were detected using microplate readers on luminescent mode (Satire Tecan).

Sequence of Protein-S-isoprenylcysteine O-methyltransferase (O60725 whole entry): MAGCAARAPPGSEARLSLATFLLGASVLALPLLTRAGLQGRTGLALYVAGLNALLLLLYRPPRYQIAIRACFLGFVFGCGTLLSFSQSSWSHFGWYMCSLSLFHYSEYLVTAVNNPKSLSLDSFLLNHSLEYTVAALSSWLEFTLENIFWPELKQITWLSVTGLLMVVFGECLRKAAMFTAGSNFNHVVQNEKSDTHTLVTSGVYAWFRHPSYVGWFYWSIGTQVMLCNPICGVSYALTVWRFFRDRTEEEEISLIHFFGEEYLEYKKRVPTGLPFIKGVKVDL

COc1cc(Cl)ccc1OCCOc1cccc(-n2ccnc2C)c1 [US11834430, Compound 45]
IC50: 0.076 µM

N#Cc1ccc(OCCOc2ccc(F)c(-c3ccnn3C3CC3)c2)c(F)c1 [US11834430, Compound 88]
IC50: 0.018 µM
